Test system: HCT116 MTAP-deleted cell lines
Assay: Cell viability assay for HCT116 isogenic pair (CellTitre-Glo, 7 days)
Format: cell-based
Details: Homo sapiens, HCT-116, 168 h, 7 days of treatment, cell line not given
Protocol: Control compounds were analyzed in parallel each time for quality control.
In Brief, on Day −1, a serial dilution of stock compounds in DMSO was performed using BioMek liquid handlers and dispensed using Echo acoustic dispenser into 384 well plates. Both tool compounds and sample compounds were spotted in the same plate for a dose response of PRMT5 inhibitors. Compound plates were stored as frozen until the cells were ready for seeding.
On Day 0, 100 HCT WT or HCT116 MTAP-deleted cells were seeded in compound-containing 384 well plates (50 μl per well) in RPMI 1640 media supplemented with 10% heat inactivated fetal bovine serum, Glutamax and penicillin streptomycin using EL460 liquid dispenser 5 μl cassette (BioTek, part no. 7170011). After equilibrating the plate in room temperature, the cells were incubated for 7 days inside the sealed incubator set at 37° C. with 90% humidity and 5% CO2.
On Day 7, the viability of cells was measured using a CTG assay kit (CellTitre-Glo; Promega cat no. G7573). Shortly, 40 μl per well of luminescent cell viability assay reagent were dispensed using EL460 liquid dispenser 5 μl cassette. CTG luminescence signal was measured using an EnVision plate reader (PerkinElmer) in accordance with manufacturer's instruction. The CCso values for each compound after 7 days of treatment were calculated using 4 parameter non-linear logistical curve fit.
For the cell viability assay ie CC50 shown in nM in Table 3.

| SMILES | CC50 [nM] |
| --- | --- |
| Cn1ncc2c(N)nc3cnc(C(=O)N4CCC[C@@H]5Oc6cc(OC(F)(F)F)ccc6[C@@H]54)cc3c21 [Example Ca-6, (4-amino-1-methyl-1H-pyrazolo[4,3-c][1,7]naphthyridin-8-yl)((4aS,9bS)-7-(trifluoromethoxy)-3,4,4a,9b-tetrahydrobenzofuro[3,2-b]pyridin-1(2H)-yl)methanone] | 8 |
| Cn1ncc2c(N)nc3cnc(C(=O)N4CCC[C@@H]5Oc6cc(C(F)(F)F)ccc6[C@@H]54)cc3c21 [Example Ca-19, (4-amino-1-methyl-1H-pyrazolo[4,3-c][1,7]naphthyridin-8-yl)((4aS,9bS)-7-(trifluoromethyl)-3,4,4a,9b-tetrahydrobenzofuro[3,2-b]pyridin-1(2H)-yl)methanone] | 6 |
| Nc1nc2cnc(C(=O)N3CCC[C@@H]4Cc5cc(C(F)(F)F)ccc5[C@@H]43)cc2c2c1COC2 (racemic) [Example Ca-23, (Rac)-(4-amino-1,3-dihydrofuro[3,4-c][1,7]naphthyridin-8-yl)((4aR,9bR)-7-(trifluoromethyl)-2,3,4,4a,5,9b-hexahydro-1H-indeno[1,2-b]pyridin-1-yl)methanone] | 134 |
| Cn1ncc2c(N)nc3cnc(C(=O)N4CC[C@@H]5C[C@H]4c4ccc(OC(F)F)cc45)cc3c21 [Example Ca-16, (4-amino-1-methyl-1H-pyrazolo[4,3-c][1,7]naphthyridin-8-yl)((1S,5R)-7-(difluoromethoxy)-1,3,4,5-tetrahydro-2H-1,5-methanobenzo[c]azepin-2-yl)methanone] | 91 |
| C[C@@H]1C[C@@H]2Oc3cc(C(F)(F)F)ccc3[C@@H]2N(C(=O)c2cc3c(cn2)nc(N)c2cnn(C)c23)C1 [Example Ca-17, (4-amino-1-methyl-1H-pyrazolo[4,3-c][1,7]naphthyridin-8-yl)((3R,4aS,9bS)-3-methyl-7-(trifluoromethyl)-3,4,4a,9b-tetrahydrobenzofuro[3,2-b]pyridin-1(2H)-yl)methanone] | 7 |
| Cn1ncc2c(N)nc3cnc(C(=O)N4CCC5CC4c4ccc(C(F)(F)F)cc45)cc3c21 (racemic) [Example Ca-14, (Rac)-(4-amino-1-methyl-1H-pyrazolo[4,3-c][1,7]naphthyridin-8-yl)((1R,5S)-7-(trifluoromethyl)-1,3,4,5-tetrahydro-2H-1,5-methanobenzo[c]azepin-2-yl)methanone] | 16 |
| Cn1ncc2c(N)nc3cnc(C(=O)N4CCO[C@@H]5Cc6cc(C(F)(F)F)ccc6[C@@H]54)cc3c21 [Example Ca-54, (4-amino-1-methyl-1H-pyrazolo[4,3-c][1,7]naphthyridin-8-yl)((4aS,9aR)-7-(trifluoromethyl)-2,3,9,9a-tetrahydroindeno[2,1-b][1,4]oxazin-4(4aH)-yl)methanone] | 16 |
| Cn1ncc2c3cc(C(=O)N4CCC[C@@H]5Oc6cc(C(F)(F)F)cc(F)c6[C@@H]54)ncc3nc(N)c21 [Example Ca-52, (4-amino-3-methyl-3H-pyrazolo[3,4-c][1,7]naphthyridin-8-yl)((4aS,9bS)-9-fluoro-7-(trifluoromethyl)-3,4,4a,9b-tetrahydrobenzofuro[3,2-b]pyridin-1(2H)-yl)methanone] | 48 |
| Cn1ncc2c(N)nc3cnc(C(=O)N4CC[C@H]5C[C@@H]4c4ccc(C(F)(F)F)cc4O5)cc3c21 [Example Ca-45, (4-amino-1-methyl-1H-pyrazolo[4,3-c][1,7]naphthyridin-8-yl)((2S,6R)-9-(trifluoromethyl)-3,4-dihydro-2H-2,6-methanobenzo[b][1,5]oxazocin-5(6H)-yl)methanone] | 5 |
| Cn1ncc2c(N)nc3cc(Cl)c(C(=O)N4CCC[C@H]5Oc6cc(C(F)(F)F)ccc6[C@H]54)cc3c21 (stereo in doubt) [Example Ca-3, (4-amino-7-chloro-1-methyl-1H-pyrazolo[4,3-c]quinolin-8-yl)((4aR,9bR)-7-(trifluoromethyl)-3,4,4a,9b-tetrahydrobenzofuro[3,2-b]pyridin-1(2H)-yl)methanone] | 5 |

Reference: patent US20250154172A1, “PRMT5 INHIBITORS AND USES THEREOF” (Gilead Sciences, Inc., priority 2023, published 2025)
